Assay results as given in patent US10155768B2, “Fused pyrimidine compound or salt thereof” (TAIHO PHARMACEUTICAL CO., LTD., priority 2016, dated 2018).

experiment: Evaluation of stability in liver microsome; conditions: mouse liver microsome 0.25 mg/mL, 1 μM test compound, 37° C. for 30 minutes
Protocol: Solutions of the test compounds in DMSO/acetonitrile (the final concentration of each test compound was 1 μM, the final concentration of DMSO was 0.01%, and the final concentration of acetonitrile was 1%) were individually added to a liver microsome mixture solution (mouse liver microsome with a final concentration of 0.25 mg/mL, a potassium phosphate buffer with a final concentration of 100 mM, and magnesium chloride with a final concentration of 3 mM), and each mixture was pre-incubated at 37° C. for 5 minutes. […] After incubation at 37° C. for 30 minutes, a double amount of ethanol was added thereto to terminate the reaction, thereby obtaining post-reaction samples. A double amount of ethanol was added to each of the remaining mixture solutions, and a NADPH-generating system was further added thereto, thereby obtaining pre-reaction samples. The pre-reaction samples and post-reaction samples were centrifuged at 2000×g, and their supernatant was filtered through a glass filter. Each filtrate was then introduced into LC-MS/MS, and MS/MS peaks of the test compounds were detected. From the ratio of the post-reaction MS/MS peak to the pre-reaction MS/MS peak of the test compounds, the percentage of the remaining test compounds (remaining %) was calculated.

Structure (SMILES)	Remaining (%)
COCc1ccc(NC(=O)c2cn(C3(C)CC3)c3ncnc(N)c23)cc1F [Example 48, 4-amino-N-(3-fluoro-4-(methoxymethyl)phenyl)-7-(1-methylcyclopropyl)-7H-pyrrolo[2,3-d]pyrimidine-5-carboxamide]	58
COCc1ccc(NC(=O)c2c(C#Cc3cnc[nH]3)n(C3(C)CC3)c3ncnc(N)c23)cc1 [Example 191, 6-((1H-imidazol-5-yl)ethynyl)-4-amino-N-(4-(methoxymethyl)phenyl)-7-(1-methylcyclopropyl)-7H-pyrrolo[2,3-d]pyrimidine-5-carboxamide]	53
COCc1ccc(NC(=O)c2c(C#CCN3CCOCC3)n(C3(C)CC3)c3ncnc(N)c23)cc1F [Example 206, 4-amino-N-(3-fluoro-4-(methoxymethyl)phenyl)-7-(1-methylcyclopropyl)-6-(3-morpholinoprop-1-yn-1-yl)-7H-pyrrolo[2,3-d]pyrimidine-5-carboxamide]	77
COCc1ccc(NC(=O)c2c(-c3ccc(O)cc3)n(C3(C)CC3)c3ncnc(N)c23)cc1 [Example 148, 4-amino-6-(4-hydroxyphenyl)-N-(4-(methoxymethyl)phenyl)-7-(1-methylcyclopropyl)-7H-pyrrolo[2,3-d]pyrimidine-5-carboxamide]	61
COCc1ccc(NC(=O)c2c(OCC3CCCCO3)n(C3(C)CC3)c3ncnc(N)c23)cc1 (centres unmarked) [Example 102, 4-amino-N-(4-(methoxymethyl)phenyl)-7-(1-methylcyclopropyl)-6-((tetrahydro-2H-pyran-2-yl)methoxy)-7H-pyrrolo[2,3-d]pyrimidine-5-carboxamide]	60
COCc1ccc(NC(=O)c2c(Cl)n(C3(C)CC3)c3ncnc(N)c23)cc1 [Example 56, 4-amino-6-chloro-N-[4-(methoxymethyl)phenyl]-7-(1-methylcyclopropyl)-7H-pyrrolo[2,3-d]pyrimidine-5-carboxamide]	62
COCc1ccc(NC(=O)c2c(-c3ccc(NC(C)=O)nc3)n(C3(C)CC3)c3ncnc(N)c23)cc1 [Example 147, 6-(6-acetamidopyridin-3-yl)-4-amino-N-(4-(methoxymethyl)phenyl)-7-(1-methylcyclopropyl)-7H-pyrrolo[2,3-d]pyrimidine-5-carboxamide]	68
COCc1ccc(NC(=O)c2c(C#Cc3ccccc3OC)n(C3(C)CC3)c3ncnc(N)c23)cc1 [Example 113, 4-amino-N-(4-(methoxymethyl)phenyl)-6-((2-methoxyphenyl)ethynyl)-7-(1-methylcyclopropyl)-7H-pyrrolo[2,3-d]pyrimidine-5-carboxamide]	79
COCc1ccc(NC(=O)c2c(OC[C@@H]3CCCO3)n(C3(C)CC3)c3ncnc(N)c23)cc1 [Example 97, (S)-4-amino-N-(4-(methoxymethyl)phenyl)-7-(1-methylcyclopropyl)-6-((tetrahydrofuran-2-yl)methoxy)-7H-pyrrolo[2,3-d] pyrimidine-5-carboxamide]	70
COCc1ccc(NC(=O)c2cn(C3(CF)CC3)c3ncnc(N)c23)cc1 [Example 45, 4-amino-7-(1-(fluoromethyl)cyclopropyl)-N-(4-(methoxymethyl)phenyl)-7H-pyrrolo[2,3-d]pyrimidine-5-carboxamide]	66
COCc1ccc(NC(=O)c2c(C(C)O)n(C3(C)CC3)c3ncnc(N)c23)cc1 (centres unmarked) [Example 204, 4-amino-6-(1-hydroxyethyl)-N-(4-(methoxymethyl)phenyl)-7-(1-methylcyclopropyl)-7H-pyrrolo[2,3-d]pyrimidine-5-carboxamide]	83
CCc1c(C(=O)Nc2ccc(COC)cc2)c2c(N)ncnc2n1C1(C)CC1 [Example 207, 4-amino-6-ethyl-N-(4-(methoxymethyl)phenyl)-7-(1-methylcyclopropyl)-7H-pyrrolo[2,3-d]pyrimidine-5-carboxamide]	72
COCc1ccc(NC(=O)c2c(C#CCC(C)(C)O)n(C3(C)CC3)c3ncnc(N)c23)cc1 [Example 86, 4-amino-6-(4-hydroxy-4-methylpent-1-yn-1-yl)-N-[4-(methoxymethyl)phenyl]-7-(1-methylcyclopropyl)-7H-pyrrolo[2,3-d]pyrimidine-5-carboxamide]	66
CCOc1c(C(=O)Nc2ccc(-c3ccco3)cc2)c2c(N)ncnc2n1C1(C)CC1 [Example 116, 4-amino-6-ethoxy-N-(4-(furan-2-yl)phenyl)-7-(1-methylcyclopropyl)-7H-pyrrolo[2,3-d]pyrimidine-5-carboxamide]	55
COCc1ccc(NC(=O)c2c(C)n(C(C)(C)C)c3ncnc(N)c23)cc1 [Example 60, 4-amino-7-(tert-butyl)-N-(4-(methoxymethyl)phenyl)-6-methyl-7H-pyrrolo[2,3-d]pyrimidine-5-carboxamide]	81
COCc1ccc(NC(=O)c2cn(C3(C)CC3)c3ncnc(N)c23)cc1 [Example 36, 4-amino-N-(4-(methoxymethyl)phenyl)-7-(1-methylcyclopropyl)-7H-pyrrolo[2,3-d]pyrimidine-5-carboxamide]	73

Structure (SMILES)	Remaining (%)
COCc1ccc(NC(=O)c2c(C#CC(O)C3CC3)n(C3(C)CC3)c3ncnc(N)c23)cc1 (centres unmarked) [Example 104, 4-amino-6-(3-cyclopropyl-3-hydroxyprop-1-yn-1-yl)-N-(4-(methoxymethyl)phenyl)-7-(1-methylcyclopropyl)-7H-pyrrolo[2,3-d]pyrimidine-5-carboxamide]	52
C=C(C)c1c(C(=O)Nc2ccc(COC)cc2)c2c(N)ncnc2n1C1(C)CC1 [Example 149, 4-amino-N-(4-(methoxymethyl)phenyl)-7-(1-methylcyclopropyl)-6-(prop-1-en-2-yl)-7H-pyrrolo[2,3-d]pyrimidine-5-carboxamide]	62
COCc1ccc(NC(=O)c2c(Br)n(C3(C)CC3)c3ncnc(N)c23)cc1 [Example 55, 4-amino-6-bromo-N-[4-(methoxymethyl)phenyl]-7-(1-methylcyclopropyl)-7H-pyrrolo[2,3-d]pyrimidine-5-carboxamide]	56
COCc1ccc(NC(=O)c2c(-c3cncnc3)n(C3(C)CC3)c3ncnc(N)c23)cc1 [Example 194, 4-amino-N-(4-(methoxymethyl)phenyl)-7-(1-methylcyclopropyl)-6-(pyrimidin-5-yl)-7H-pyrrolo[2,3-d]pyrimidine-5-carboxamide]	67
COCc1ccc(NC(=O)c2cn(C(C)(C)CF)c3ncnc(N)c23)cc1F [Example 41, 4-amino-7-(1-fluoro-2-methylpropan-2-yl)-N-(3-fluoro-4-(methoxymethyl)phenyl)-7H-pyrrolo[2,3-d]pyrimidine-5-carboxamide]	56
COCc1ccc(NC(=O)c2c(C#CC3CCN(C)CC3)n(C3(C)CC3)c3ncnc(N)c23)cc1 [Example 183, 4-amino-N-(4-(methoxymethyl)phenyl)-7-(1-methylcyclopropyl)-6-((1-methylpiperidin-4-yl)ethynyl)-7H-pyrrolo[2,3-d]pyrimidine-5-carboxamide]	77
CCn1cc(C#Cc2c(C(=O)Nc3ccc(COC)cc3)c3c(N)ncnc3n2C2(C)CC2)cn1 [Example 118, 4-amino-6-((1-ethyl-1H-pyrazol-4-yl)ethynyl)-N-(4-(methoxymethyl)phenyl)-7-(1-methylcyclopropyl)-7H-pyrrolo[2,3-d]pyrimidine-5-carboxamide]	73
COCc1ccc(NC(=O)c2c(OC)n(C3(C)CC3)c3ncnc(N)c23)cc1 [Example 57, 4-amino-6-methoxy-N-[4-(methoxymethyl)phenyl]-7-(1-methylcyclopropyl)-7H-pyrrolo[2,3-d]pyrimidine-5-carboxamide]	86
COCc1ccc(NC(=O)c2c(-c3cnn(C)c3)n(C3(C)CC3)c3ncnc(N)c23)cc1 [Example 150, 4-amino-N-(4-(methoxymethyl)phenyl)-6-(1-methyl-1H-pyrazol-4-yl)-7-(1-methylcyclopropyl)-7H-pyrrolo[2,3-d]pyrimidine-5-carboxamide]	78
COCc1ccc(NC(=O)c2c(C#CCCN3CCOCC3)n(C3(C)CC3)c3ncnc(N)c23)cc1 [Example 187, 4-amino-N-(4-(methoxymethyl)phenyl)-7-(1-methylcyclopropyl)-6-(4-morpholinobut-1-yn-1-yl)-7H-pyrrolo[2,3-d]pyrimidine-5-carboxamide]	68
COCc1ccc(NC(=O)c2c(C#Cc3cnn(C)c3C)n(C3(C)CC3)c3ncnc(N)c23)cc1 [Example 182, 4-amino-6-((1,5-dimethyl-1H-pyrazol-4-yl)ethynyl)-N-(4-(methoxymethyl)phenyl)-7-(1-methylcyclopropyl)-7H-pyrrolo[2,3-d]pyrimidine-5-carboxamide]	61
COCc1ccc(NC(=O)c2c(C#CC3CCOCC3)n(C3(C)CC3)c3ncnc(N)c23)cc1F [Example 205, 4-amino-N-(3-fluoro-4-(methoxymethyl)phenyl)-7-(1-methylcyclopropyl)-6-((tetrahydro-2H-pyran-4-yl)ethynyl)-7H-pyrrolo[2,3-d]pyrimidine-5-carboxamide]	58
Nc1ncnc2c1c(C(=O)Nc1ccc(Oc3ccccc3)cc1)cn2C1CCCC1 [Compound 2 of Comparative Examples, 4-amino-7-cyclopentyl-N-(4-phenoxyphenyl)-7H-pyrrolo[2,3-d]pyrimidine-5-carboxamide, reference compound]	0
COCc1ccc(NC(=O)c2c(C#CCC3NC(=O)NC3=O)n(C3(C)CC3)c3ncnc(N)c23)cc1 (centres unmarked) [Example 156, 4-amino-6-(3-(2,5-dioxoimidazolidin-4-yl)prop-1-yn-1-yl)-N-(4-(methoxymethyl)phenyl)-7-(1-methylcyclopropyl)-7H-pyrrolo[2,3-d]pyrimidine-5-carboxamide]	67
COCc1ccc(NC(=O)c2cn(C3(C4CC4)CC3)c3ncnc(N)c23)cc1 [Example 49, 7-{[1,1-bi(cyclopropane)]-1-yl}-4-amino-N-(4-(methoxymethyl)phenyl)-7H-pyrrolo[2,3-d]pyrimidine-5-carboxamide]	67

same assay, conditions: mouse liver microsome, 1 μM, 37° C., 30 minutes

Structure (SMILES)	percentage of the remaining test compounds (remaining %) [%]
Nc1ncnc2c1c(C(=O)Nc1ccc(Oc3ccccc3)cc1)cn2C1CCCC1 [Compound 2 of Comparative Examples, 4-amino-7-cyclopentyl-N-(4-phenoxyphenyl)-7H-pyrrolo[2,3-d]pyrimidine-5-carboxamide, reference compound]	0
